Laboratory results reported in patent US6979686B1, “Substituted pyrazoles as p38 kinase inhibitors” (Pharmacia Corporation, priority 2001, dated 2005).
Structures can show the parent of a compound that is named as a salt. Where two headings read alike, the source gives them in different places. Each block holds one compound with its values, some of them ahead of it.

Experiments:
[1] = test system: TNF-α, U937 human histiocytic lymphoma cell line; assay: LPS stimulation of TNF production by U937 cells; format: cell-based; settings: Table 5; LPS-stimulated U937 cells, TNF-α; read-out: U937 Cell Assay IC50
Summary of the method: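 U937 cells differentiated 24 h with 20 ng/ml PMA, rested 24-48 h, used at 2 million cells/ml. Compounds in 0.1% DMSO final; LPS (E. coli, 100 ng/ml final) stimulation for 4 h at 37° C. Released TNF-α measured by ELISA; IC50 (μM).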

human p38 kinase alpha = biological target: T1, human p38 kinase alpha (Homo sapiens, UniProt Q16539); assay: p38 kinase in vitro assay, phosphorylation of biotinylated PHAS-I with 32P-ATP; format: biochemical; settings: activated human p38 kinase alpha, PHAS-I substrate, 50 μM unlabeled ATP; read-out: p38 kinase IC50
T1 construct: GST (N, cleaved yes); made in house; host or cells: E. coli DH10B
T1 sequence (Q16539 whole entry): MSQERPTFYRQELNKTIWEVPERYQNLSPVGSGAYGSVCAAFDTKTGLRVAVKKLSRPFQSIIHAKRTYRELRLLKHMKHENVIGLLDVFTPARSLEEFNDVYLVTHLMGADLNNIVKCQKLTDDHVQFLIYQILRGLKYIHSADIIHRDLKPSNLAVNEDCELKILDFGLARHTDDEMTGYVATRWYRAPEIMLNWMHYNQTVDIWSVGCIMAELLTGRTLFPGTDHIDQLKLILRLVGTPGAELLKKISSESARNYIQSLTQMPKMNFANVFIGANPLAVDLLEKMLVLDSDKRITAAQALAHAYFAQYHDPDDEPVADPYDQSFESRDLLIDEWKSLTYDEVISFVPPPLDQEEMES

[2] = test system: TNF-a, human peripheral blood mononuclear cells; assay: LPS stimulation of human PBMs, TNF-a by ELISA; format: cell-based; settings: Table 5, LPS-stimulated human PBM cells, TNF cell assay
Description: Method of Isolation of Human Peripheral Blood Mononuclear Cells:
Human whole blood was collected in Vacutainer tubes containing EDTA as an anticoagulant. A blood sample (7 ml) was carefully layered over 5 ml PMN Cell Isolation Medium (Robbins Scientific) in a 15 ml round bottom centrifuge tube. The sample was centrifuged at 450-500×g for 30-35 minutes in a swing out rotor at room temperature. After centrifugation, the top band of cells were removed and washed 3 times with PBS w/o calcium or magnesium. The cells were centrifuged at 400×g for 10 minutes at room temperature. The cells were resuspended in Macrophage Serum Free Medium (Gibco BRL) at a concentration of 2 million cells/ml.
LPS Stimulation of Human PBMs:
Compounds were dissolved in DMSO initially and diluted in TCM for a final concentration of 0.1% DMSO. LPS (Calbiochem, 20 ng/ml, final concentration) was then added at a volume of 0.010 ml. Cultures were incubated overnight at 37° C. Supernatants were then removed and tested by ELISA for TNF-a and IL1-b. Viability was analyzed using MTS. After 0.1 ml supernatant was collected, 0.020 ml MTS was added to remaining 0.1 ml cells.

[3] = biological target: T2, human GST-p38 kinase alpha (Homo sapiens, UniProt Q16539); assay: p38 kinase in vitro assay, second format, phosphorylation of EGFRP with 33P-ATP; format: biochemical
T2 construct: made in house; host or cells: E. coli DH10B
T2 sequence (Q16539 whole entry): as above
Description: The ability of compounds to inhibit human p38 kinase alpha was evaluated using two in vitro assay methods. In the first method, activated human p38 kinase alpha phosphorylates a biotinylated substrate, PHAS-I (phosphorylated heat and acid stable protein-insulin inducible), in the presence of gamma ^32P-ATP (^32P-ATP). PHAS-I was biotinylated prior to the assay and provides a means of capturing the substrate which is phosphorylated during the assay. p38 Kinase was activated by MKK6. Compounds were tested in 10 fold serial dilutions over the range of 100 μM to 0.001 μM using 1% DMSO. Each concentration of inhibitor was tested in triplicate.
A second assay format was also employed that is based on p38 kinase alpha induced phosphorylation of EGFRP (epidermal growth factor receptor peptide, a 21 mer) in the presence of ^33P-ATP. Compounds were tested in 10 fold serial dilutions over the range of 100 μM to 0.001 μM in 10% DMSO. Each concentration of inhibitor was tested in triplicate. Compounds were evaluated in 50 μl reaction volumes in the presence of 25 mM Hepes pH 7.5, 10 mM magnesium acetate, 4% glycerol, 0.4% bovine serum albumin, 0.4 mM DTT, 50 μM unlabeled ATP, 25 μg EGFRP (200 μM), and 0.05 μCi gamma ^33P-ATP. Reactions were initiated by addition of 0.09 μg of activated, purified human GST-p38 kinase alpha. Activation was carried out using GST-MKK6 (5:1,p38:MKK6) for one hour at 30° C. in the presence of 50 μM ATP. Following incubation for 60 minutes at room temperature, the reaction was stopped by addition of 150 μl of AG 1X8 resin in 900 mM sodium formate buffer, pH 3.0 (1 volume resin to 2 volumes buffer). The mixture was mixed three times with pipetting and the resin was allowed to settle. A total of 50 μl of clarified solution head volume was transferred from the reaction wells to Microlite-2 plates. 150 μl of Microscint 40 was then added to each well of the Microlite plate, and the plate was sealed, mixed, and counted.

[4] = test system: collagen-induced arthritis, DBA/1 male mice; assay: Collagen-induced arthritis in mice; format: in vivo, mouse; settings: oral gavage b.i.d., day 20 to day 56
Description: Induction and Assessment of Collagen-induced Arthritis in Mice:
Arthritis was induced in mice according to the procedure set forth in J. M. Stuart, Collagen Autoimmune Arthritis, Annual Rev. Immunol. 2:199 (1984), which is incorporated herein by reference. Specifically, arthritis was induced in 8-12 week old DBA/1 male mice by injection of 50 μg of chick type II collagen (CII) (provided by Dr. Marie Griffiths, Univ. of Utah, Salt Lake City, Utah) in complete Freund's adjuvant (Sigma) on day 0 at the base of the tail. Injection volume was 100 μl. Animals were boosted on day 21 with 50 μg of CII in incomplete Freund's adjuvant (100 μl volume). Animals were evaluated several times each week for signs of arthritis. Any animal with paw redness or swelling was counted as arthritic. Scoring of arthritic paws was conducted in accordance with the procedure set forth in Wooley et al., Genetic Control of Type II Collagen Induced Arthritis in Mice: Factors Influencing Disease Suspectibility and Evidence for Multiple MHC Associated Gene Control., Trans. Proc., 15:180 (1983). Scoring of severity was carried out using a score of 1-3 for each paw (maximal score of 12/mouse). Animals displaying any redness or swelling of digits or the paw were scored as 1. Gross swelling of the whole paw or deformity was scored as 2. Ankylosis of joints was scored as 3. Animals were evaluated for 8 weeks. 8-10 animals per group were used.
Preparation and Administration of Compounds:
The compounds tested on mice having collagen-induced arthritis were prepared as a suspension in 0.5% methylcelluose (Sigma, St. Louis, Mo.), 0.025% Tween 20 (Sigma). The compound suspensions were administered by oral gavage in a volume of 0.1 ml b.i.d. Administration began on day 20 post collagen injection and continued daily until final evaluation on day 56. Scoring of arthritic paws was conducted as set forth above.

[5] = test system: TNF alpha, BALB/c mice injected with LPS; assay: Mouse model of LPS-induced TNF alpha production; format: in vivo; settings: Table 6; mouse LPS, head '8 h', dose 30, oral gavage
Summary of the method: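 Female BALB/c mice aged 10–12 weeks received 100 ng LPS i.v. and were bled 1 h later, with serum TNF measured by ELISA. Compound was given by oral gavage in mg/kg at the stated hours before LPS. Values are % inhibition against vehicle-treated LPS mice.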

[6] = Table 10, 10% DMSO, @ 1.0 hour, read-out: p38α Kinase Assay IC50

IC50 [1]: 243 nM
IC50 (human p38 kinase alpha): < 100 nM
IC50 [2]: < 100 nM
Compound: CCc1[nH]nc(-c2ccccc2)c1-c1ccncc1 [Example A-43]

IC50 [3, 6]: 510 nM
Compound: COc1ccc(-c2n[nH]c(N3CCN(C)CC3)c2-c2ccncc2)cc1 [Example A-415, 1-(4-(4-methoxyphenyl)-4-(4-pyridinyl)-1H-pyrazol-3-yl]-4-methylpiperazine]

IC50 ([2]; PBMC): < 100 nM
Compound: CCc1[nH]nc(-c2cccc(C)c2)c1-c1ccncc1 [Example 45]

IC50 ([3]; Table 9, 10% DMSO, read-out: p38α Kinase Assay IC50): 16 nM
Compound: O[C@H]1CC[C@H](Nc2cc(-c3c[nH]nc3-c3ccc(F)cc3)ccn2)CC1 [Example A-386, trans-4-[[4-[3-(4-fluorophenyl)-1H-pyrazol-4-yl]-2-pyridinyl]amino]cyclohexanol]

IC50 [1]: 29 nM
IC50 (human p38 kinase alpha): 700 nM
IC50 [2]: < 100 nM
Compound: CCCc1[nH]nc(-c2cccc(C)c2)c1-c1ccncc1 [Example A-26]

IC50 ([2]; PBMC): 200 nM
Compound: Cc1[nH]nc(-c2ccc(Cl)cc2)c1-c1ccncc1 [Example 7, 4-(3-(4-chlorophenyl)-5-methyl-1H-pyrazol-4-yl)pyridine]

IC50 ([3]; Table 6, EGFRP assay procedure, read-out: p38^2 (p38α in vitro assay, EGFRP assay procedure) IC50): < 10 nM
Compound: Fc1ccc(-c2[nH]ncc2-c2ccnc(NCCn3ccnc3)c2)cc1 [Example A-268, 4-[3-(4-fluorophenyl)-1H-pyrazol-4-yl]-N-[2-(1H-imidazol-1-yl)ethyl]-2-pyridinamine]

More lines, now with the values behind:

Compound: O=C(C(=C1SCS1)c1ccncc1)c1ccc(I)cc1 [Example A-401]
IC50 [3, 6]: 21200 nM

Compound: Fc1ccc(-c2[nH]nc(C3CC3)c2-c2ccncc2)cc1 [Example A-189, 4-[3-cyclopropyl-5-(4-fluorophenyl)-1H-pyrazol-4-yl]pyridine]
% Inhibition of Arthritis ([4]; 30 mpk): 51.6 @ 30 mpk %

Compound: Fc1ccc(-c2[nH]nc(N3CCNCC3)c2-c2ccncc2)cc1 [Example A-172, 1-[5-(4-fluorophenyl)-4-(4-pyridinyl)-1H-pyrazol-3-yl]piperazine trihydrochloride]
% Inhibition of Arthritis ([4]; 100 mpk): 49.3 @ 100 mpk %

Compound: Cc1[nH]nc(-c2ccsc2)c1-c1ccncc1 [Example A-49]
IC50 [2]: 6800 nM

Compound: OCCn1cc(-c2ccncc2)c(-c2ccc(F)cc2)n1 [Example A-210, 3-(4-fluorophenyl)-4-(4-pyridinyl)-1H-pyrazole-1-ethanol]
mLPS 8 h percent inhibition [5]: 85%
% Inhibition of Arthritis ([4]; 15 mpk): 58.5 @ 15 mpk %
